Reference: patent publication US20060058320A1, “[1,2,4] Triazolo[1,5-c]pyrimidine derivatives” (KYOWA HAKKO KOGYO CO., LTD., priority 2002, published 2006)
Like-named read-outs stand apart in the source and are kept apart here.

Key:
adenosine A2A receptor = target: T1, adenosine A2A receptor (Rattus norvegicus, UniProt P30543); assay: Adenosine A2A receptor binding test (3H-CGS 21680 binding); settings: for inhibition at 0.1 µM: read-out: A2A Receptor inhibition rate (%) at 10^−7 mol/L
T1 construct: from tissue; host or cells: rat corpus striatum membrane preparation

[1] = test system: CGS 21680-induced catalepsy; assay: Activity on CGS 21680-induced catalepsy; format: in vivo, mice; settings: for inhibition in vivo at 10 mg/kg: Mus musculus, po, read-out: Remission ratio (%); for Total score: total catalepsy score of 10 mice (maximum 50 points; 40 points or less = positive), one hour after administration
How it was run: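 Male ddY mice, 5 weeks old, ten per group, were dosed orally with compound at 10 mg/kg in 0.3% Tween 80 water, 30 min before CGS 21680 (10 μg/20 μL) was injected into the cerebral ventricle. Catalepsy was scored 1 h after compound dosing by placing forelimbs or hindlimbs on a 4.5 cm stand.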

male ddY mice = assay: Forced swimming method (measurement of immobility time); format: in vivo; settings: orally administered, 10 mg/kg, one hour before the test; versus solvent group (Steel-test)
Method: Ten male ddY mice (21 to 26 g in body weight, Japan SLC) per group were used as test animals. During the preliminary feeding period, the animals were bred to be allowed to freely have feed (CRF-1; Oriental Yeast Co., Ltd, Tokyo) and water (tap water) in an animal room at a room temperature for 23±1° C. and a humidity of 55±5%.
Animals showing abnormal reactions in terms of spontaneous activity, myotonia, eyesight and the like were previously excluded. Each test compound was suspended in a 0.3% Tween 80 solution and orally administered one hour before the test. In the negative control group, 10 mL/kg of a 0.3% Tween 80 solution alone was orally administered. The immobility time was measured according to the Porsolt method [Arch. Int. Pharmacodyn., vol. 229, pp. 327-336 (1977)]. Namely, a cylindrical transparent acrylic water tank (10 cm in diameter and 25 cm in height) was filled with water at a temperature between 23±1° C. to a height of 9 cm, and the mice were forced to swim for 6 minutes. When the mice are put into water, they immediately start to swim trying to escape from the tank, but the motion gradually decreases 1 to 2 minutes thereafter. […] In order to reduce the effects of daily rhythm, the test was carried out using 5 of the 10 animals per group in the morning, and the remaining 5 animals in the afternoon. The immobility time was measured by observing 2 animals at the same time without telling the observers distinctions about the control group administered with the solvent alone and doses of the test compounds. Statistical analysis of the results was carried out by a multiple comparison Steel-test between the solvent-administered group and the test compound-administered group.

male SD rats = assay: Learned helplessness (LH) model; format: in vivo; settings: for escape response: IES-loaded rats, 2 mg/kg orally 1 hour before FR1; for intertrial responses (index of psychomotor stimulant action): versus electric shock loaded control group, 2 mg/kg orally
Method: As test animals, 10 to 15 male SD rats (220 to 320 g in body weight, 7 week age, Charles River Japan, Inc., Atsugi) per group were used. During the preliminary feeding period, the animals were bred to be allowed to freely have feed (CRF-1; Oriental Yeast Co., Ltd, Tokyo) and water (tap water) in an animal room at a room temperature of 22 to 24° C. and a humidity of 50 to 60%. Each test compound was orally administered in a dose of 2 mg/kg 1 hour before RF1 (refer to the contents described below) on the second day of the test.
A shuttle box apparatus (TK-401S; produced by UNICOM, Chiba) was used as a learning experimental apparatus. On the first day, the shuttle box was divided into two rooms by setting a partition at its center, and one rat was put in each of the rooms. […] Although each rat was put in the shuttle box for 50 minutes, the charging time of inescapable shock (IES) was set to 25 minutes by computer control using a random duration time (10 to 90 seconds) and random on-off and off-on (10 to 90 seconds).
On the second day, a shuttle box test was carried out by the method of Maier [J. Comp. Physiol. Psychol., vol. 85, pp. 581-592 (1973)] and the method of Geoffroy and Christensen [Drug Dev. Res., vol. 29, pp. 48-55 (1993)] which were slightly modified. The partition at the center of the shuttle box was removed, and the box was divided into two rooms by a hurdle of 2 cm in height instead of the partition. In the shuttle box test, FRI (an electric shock of 0.6 mA was applied to the rat for 5 seconds unless the rat moved to the other room within 5 seconds after the start of buzzer sounds, and when the rat moved to the other room within 5 seconds after the start of buzzer sounds, the floor shock could be avoided, this operation being carried as one trial and repeated 15 times with an interval of 10 seconds between trials.) was carried out, continuously followed by FR2 (an electric shock of 0.6 mA was applied to the rat for 10 seconds, and then an electric shock of 0.6 mA was applied at intervals of 0.5 second for 10 seconds, this operation being carried out as one trial and repeated 15 times with an interval of 15 seconds between trials). Escape reaction was determined by the escape response calculated by the equation below on the assumption that cases showing two escape latency times of less than 10 seconds in FR2 were regarded as successful escape. Escape response (%)=(Number of trials of successful escape/15)×100
Furthermore, migration (intertrial response %) in the box other than the escape reaction observed during a period between trials (resting time) was used as an index of psychomotor stimulant action, the intertrial response being calculated by the following equation. […]

[2] = test system: common marmoset treated with 1-methyl-4-phenyl-1,2,3,6-tetrahydropyridine (MPTP); assay: Parkinson's disease model, MPTP-treated common marmoset; format: in vivo; settings: symptom score and spontaneous locomotor activity versus solvent-administered group
Method: Parkinson's disease is a disease based on the degeneration and cell death of the nigrostriatal dopaminergic neurons. […] These MPTP-treated primates are known as a model of Parkinson's disease [Proceedings of the National Academy of Science USA, vol. 80, p. 4546 (1983)]. […] 57, p. 37 (1985)].
The test was carried out using 4 female and male common marmosets of 2 to 3 year age (300 to 375 g in body weight, Japan CLEA) per group. MPTP (produced by RBI Co.) was dissolved in physiological saline for injection (produced by Otsuka Pharmaceutical Co., Ltd.), and hypodermically administered to the common marmosets once a day for 5 days in a dose of 2.0 mg/kg. Six weeks or more after the administration, animals showing chronic symptoms of Parkinson's disease were used in the test. Each test compound was used by suspending it in an aqueous solution containing 0.3% Tween 80 and 10% sucrose. Also, a solution containing no test compound was used as a control. One hour before the administration of the test compound, the animals to be tested were put into an observation cage (provided with a spontaneous locomotor activity measuring apparatus) to adapt them to the environment. The symptoms of Parkinson's disease were observed from a one-way see through window at intervals of 30 minutes for 8 hours to score the motor disability. The spontaneous locomotor activity was measured at intervals of 30 minutes for 12 hours by a computer-controlled automatic measuring apparatus. The symptoms of Parkinson's disease were decided on the basis of the criteria of each observation item shown below, and the total of the points was used as the score of each animal.
The effect was decided by comparing average scores of the symptoms of Parkinson's disease in 4 animals per group between the test compound-administered group and the solvent-administered group (significance test: Sign-Wilcoxon test). The spontaneous locomotor activity was also decided by comparison between the test compound-administered group and the solvent-administered group.

[3] = test compound 10^−7 mol/L, 3H-CGS 21680 binding, rat corpus striatum
[4] = from total score of test group and control group, 10 mg/kg orally

T1 sequence (P30543 whole entry): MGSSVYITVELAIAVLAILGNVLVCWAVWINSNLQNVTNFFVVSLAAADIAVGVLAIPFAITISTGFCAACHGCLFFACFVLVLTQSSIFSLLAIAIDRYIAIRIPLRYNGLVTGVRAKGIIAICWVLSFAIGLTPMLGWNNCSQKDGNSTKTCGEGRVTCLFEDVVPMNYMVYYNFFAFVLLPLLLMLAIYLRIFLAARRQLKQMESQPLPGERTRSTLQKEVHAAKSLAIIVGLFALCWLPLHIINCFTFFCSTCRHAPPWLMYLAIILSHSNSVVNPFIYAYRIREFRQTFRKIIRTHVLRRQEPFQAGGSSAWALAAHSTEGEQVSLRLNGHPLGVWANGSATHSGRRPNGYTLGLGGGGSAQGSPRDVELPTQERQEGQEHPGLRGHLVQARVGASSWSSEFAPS

| Compound | inhibition at 0.1 µM (adenosine A2A receptor; [3]) [%] | inhibition in vivo at 10 mg/kg [1, 4] [%] | Total score ([1]; 10 mg/kg orally) | immobility time (male ddY mice) | escape response (male SD rats) | intertrial responses (index of psychomotor stimulant action) (male SD rats) | effect in the common marmoset MPTP-treated Parkinson's disease model [2] | A2A Receptor inhibition rate (%) at 10^−7 mol/L (adenosine A2A receptor; [3]) [%] | Number of animals showing remission ([1]; cases with catalepsy score of 4 points or less in 10 cases, 10 mg/kg orally) | Remission ratio (%) [1, 4] [%] | inhibition at 0.1 µM (adenosine A2A receptor) [%] | inhibition in vivo at 10 mg/kg [1] [%] |
| --- | --- | --- | --- | --- | --- | --- | --- | --- | --- | --- | --- | --- |
| CC(C)NC(=O)c1cc2nc(-c3ccco3)nn2c(N)n1 [Compound 89, 5-Amino-2-(2-furyl) [1,2,4]triazolo[1,5-c]pyrimidine-7-carboxylic acid isopropylamide] | 89 | 84 | 8 | significant effect of decreasing the immobility time |  |  |  |  |  |  |  |  |
| Nc1nc(C(=O)NCc2cccnc2)cc2nc(-c3ccco3)nn12 [Compound 83, 5-Amino-2-(2-furyl) [1,2,4]triazolo[1,5-c]pyrimidine-7-carboxylic acid (3-pyridylmethyl)amide] |  | 96 | 2 | significant effect of decreasing the immobility time | significantly recover a reduced escape response | no difference |  |  |  |  |  |  |
| Nc1nc(C2CCN(CC3CC3)CC2)cc2nc(-c3ccco3)nn12 [Compound 71, 5-Amino-7-[1-(cyclopropylmethyl)piperidin-4-yl]-2-(2-furyl)-[1,2,4]triazolo[1,5-c]pyrimidine] | 87 |  |  | significant effect of decreasing the immobility time | significantly recover a reduced escape response | no difference | effective |  |  |  |  |  |
| 5-Amino-2-(2-furyl)[1,2,4]triazolo[1,5-c]pyrimidine-7-carboxylic acid (1,2,3,4-tetrahydroisoquinolyl)amide [Compound 94] |  |  | 5 | significant effect of decreasing the immobility time |  |  |  | 95 | 10 | 90 |  |  |
| CN(CCc1ccccn1)C(=O)c1cc2nc(-c3ccco3)nn2c(N)n1 [Compound 85, 5-Amino-2-(2-furyl)[1,2,4]triazolo[1,5-c]pyrimidine-7-carboxylic acid {N-[2-(2-pyridyl)ethyl]-N-methyl}amide] | 70 | 94 | 3 |  |  |  | effective |  |  |  |  |  |
| CC(C)(O)CCN1CC=C(c2cc3nc(-c4ccco4)nn3c(N)n2)CC1 [Compound 76, 5-Amino-7-[1-(3-methyl-3-hydroxybutyl)-1,2,3,6-tetrahydro-pyridin-4-yl]-2-(2-furyl)[1,2,4]triazolo[1,5-c]pyrimidine] |  |  | 5 |  |  |  | effective |  |  |  | 72 | 80 |
